# In patent publication US9572862B2, “Methods for promoting lipolysis and oxidation in liver and adipose tissue using catestatin” (The Regents of the University of California, priority 2012, dated 2017):
# Entries after “also recorded” stand apart in the source; their conditions may differ. No end group written: not given here.
# Columns and labels:
# liver of Chga-KO mice = assay: Hepatic gene expression by real-time PCR after CST; type: in vivo; conditions: CST 12 days
# Experimental: FIG. 4. Effects of CST on hepatic expression of genes involved in lipogenesis and fatty acid oxidation. Relative mRNA expression of genes involved in fatty acid oxidation in liver of WT and Chga-KO mice after treatment with saline or CST (5 μg/g BW, i.p./day) for 12 days: carnitine palmitoyltransferase 1a (Cpt1α) (A), peroxisome proliferator-activated receptor-alpha (Pparα) (B), acyl-CoA oxidase 1 (Acox1) (C) and uncoupling protein 2 (Ucp2) (D). (E) Relative expression of genes involved in lipogenesis in liver of Chga-KO mice after treatment with saline or CST (5 μg/g BW, i.p./day) for 12 days: sterol regulatory element-binding protein 1 (Srebp-1), peroxisome proliferator-activated receptor-gamma (Pparγ), glycerol-3-phosphate acyltransferase (Gpat4) and Cluster of Differentiation 36 (Cd36).
# RNA was extracted using a kit (RNeasy Plus, Qiagen, Valencia, Calif.) according to the manufacturer's specifications. After DNase digestion, 100 ng of RNA was transcribed into cDNA in a 20-μl reaction using a High Capacity cDNA kit (Invitrogen, Carlsbad, Calif.), analyzed, and amplified. PCR was performed in a 25-μl reaction containing 5 μl of cDNA (one-fifth diluted), 2×SYBR Green PCR Master Mix, and the primers described in Table 1 (400 nM each). Differences in cycle threshold values (ΔCt) between target and the housekeeping gene GAPDH were used to calculate the levels of expression.
# Ob/Ob mice = assay: CST administration to Ob/Ob mice for 16 days; type: in vivo
# Experimental: FIG. 7. Effects of CST administration to DIO and Ob/Ob mice on food intake, body weight, adipose tissue weight, and lipolysis. CST (5 μg/g BW, i.p./day) or saline was administered to DIO and Ob/Ob mice for 16 days. Food intake for DIO mice (A) and Ob/Ob mice (B) was measured every other day. Percent changes in final body weight and WAT mass (as % of body weight) were determined for DIO (C) and Ob/Ob (D) mice. Plasma glycerol (E) and NEFA (F) were quantified for DIO and Ob/Ob mice at the end of CST treatment.
# Adult male (7 month old) WT (31.8±1.2 g) and Chga-KO (39.2±1.5 g) mice in the mixed genetic background (129SvJ×C57BL/6) were studied. Both genotypes were generated from the original founder carrying mixed genotype (50% 129SvJ, 50% C57BL/6) and were maintained by sibling mating. Animals were kept in a 12 hr dark/light cycle and fed standard chow ad libitum. Male C57BL/6 mice, 8 week old, were fed 60% high fat diet (D12492: Research Diets, Inc., New Brunswick) for 16 weeks before using for experiments. Male leptin-deficient (C57BL/6J-Ob/Ob) mice from the Jackson Laboratory were maintained on a standard chow diet. The Institutional Animal Care and Utilization Committee approved all procedures. Chga-KO, DIO and Ob/Ob mice were treated daily with saline or CST (5 μg/g BW, i.p.; 12 days for Chga-KO mice and 16 days for DIO and Ob/Ob mice).
# Mice were fasted for 12 hr prior to blood draw. Triglycerides (TG) and non-esterified fatty acids (NEFA) were assayed using kits from Wako Diagnostics (Richmond, Va.). Glycerol was assayed using a kit from Sigma (St Louis, Mo.). Media from the explant cultures and mouse serum were analysed for glycerol and NEFA as a measure of lipolysis. ELISA kits were used to determine plasma levels of leptin, adiponectin (Millipore, Billerica, Mass.) and CST (Bachem, Torrance, Calif.). For CST assay, plasma samples and reference standards were passed through mini C18 columns and the flow-through fractions were assayed. The same kits were used for measurements in culture media.
# HFD-fed WT mice = assay: CST treatment of HFD-fed WT mice; type: in vivo
# Text: FIG. 12. Metabolic phenotypes in HFD-fed CST-KO mice. (A) CST-KO mice eat more 60% HFD than WT. (B) CST-KO mice gained more weight than WT. (C) Heightened glucose resistance at baseline in CST-KO mice compared to WT mice. […] Figures in parentheses indicate number of animals.
# [1] = reference (8); cited from earlier work
sequence,measurement,setting,value
SSMKLSFRARAYGFRGPGPQL [CST],liver mRNA expression of Acox,liver of Chga-KO mice,augmented
same,liver mRNA expression of Cd36,liver of Chga-KO mice,stimulated
same,liver mRNA expression of Cpt1α,liver of Chga-KO mice,augmented
same,liver mRNA expression of Gpat4,liver of Chga-KO mice,stimulated
same,liver mRNA expression of Pparα,liver of Chga-KO mice,augmented
same,liver mRNA expression of Pparγ,liver of Chga-KO mice,no effect
same,liver mRNA expression of Srebp-1,liver of Chga-KO mice,no effect
same,liver mRNA expression of Ucp2,liver of Chga-KO mice,augmented
same,food intake,Ob/Ob mice; CST 5 μg/g BW i.p./day 16 days,started to level off
same,adipose tissue mass,Ob/Ob mice; CST 16 days,not reflected in any decrease in body weight or adipose tissue mass
same,body weight,Ob/Ob mice; CST 16 days,not reflected in any decrease in body weight
same,plasma concentration of NEFA (lipolysis),Ob/Ob mice; CST 16 days,not affected
same,plasma concentration of glycerol (lipolysis),Ob/Ob mice; CST 16 days,not affected
same,basal plasma insulin level,HFD-fed WT mice,decreased; also recorded: reduced hyperinsulinemia
same,insulin sensitivity,HFD-fed WT mice,improvement in insulin sensitivity; also recorded: sensitive to insulin
same,protease degradation,[1],susceptible to complete protease degradation
